# Laboratory results reported in patent publication US20240366589A1, “NHE3-BINDING COMPOUNDS AND METHODS FOR INHIBITING PHOSPHATE TRANSPORT” (Ardelyx, Inc., priority 2013, published 2024).
# “Also recorded” adds a separate entry of the source.
# Legend:
# [1] = target: T1, human NaP2b (SLC34A2) (Homo sapiens, UniProt O95436); assay: Cell-based assay of NaP2b activity (33P uptake, transfected HEK293 cells), human NaP2b isoform a; settings: Table E5; HEK293, 33P uptake; dihydrochloride salt
# T1 construct: host or cells: HEK293 cells (ATCC), Lipofectamine 2000, transient
# T1 sequence (O95436 1-690): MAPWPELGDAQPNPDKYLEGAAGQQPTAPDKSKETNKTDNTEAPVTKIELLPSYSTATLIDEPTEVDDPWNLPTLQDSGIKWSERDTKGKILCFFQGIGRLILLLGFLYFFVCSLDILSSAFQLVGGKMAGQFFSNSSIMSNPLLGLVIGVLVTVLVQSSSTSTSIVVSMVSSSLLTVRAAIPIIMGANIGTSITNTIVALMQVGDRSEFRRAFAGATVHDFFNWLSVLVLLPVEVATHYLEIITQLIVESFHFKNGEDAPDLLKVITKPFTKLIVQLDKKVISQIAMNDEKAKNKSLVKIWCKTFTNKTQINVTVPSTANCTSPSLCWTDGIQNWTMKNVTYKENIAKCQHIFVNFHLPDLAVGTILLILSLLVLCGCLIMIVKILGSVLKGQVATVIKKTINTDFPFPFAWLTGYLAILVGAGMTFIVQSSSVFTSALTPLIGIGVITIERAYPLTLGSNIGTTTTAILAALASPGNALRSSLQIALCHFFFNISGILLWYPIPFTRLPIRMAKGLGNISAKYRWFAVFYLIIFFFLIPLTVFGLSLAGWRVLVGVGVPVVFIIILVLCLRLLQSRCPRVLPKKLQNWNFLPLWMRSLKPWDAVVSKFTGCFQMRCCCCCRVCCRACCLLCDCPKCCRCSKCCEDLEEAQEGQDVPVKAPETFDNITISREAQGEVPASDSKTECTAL
# Experimental: Cell-based assay of NaP2b activity. The rate of phosphate (Pi) uptake into cells was measured using a modification of a literature method (see Mohrmann et al. Am. J Phys. 250(3 pt 1):G323-30, 1986). Briefly, HEK293 cells were transiently transfected with an expression clone encoding either rat or human NaP2b. The next day, transfected cells were treated with a pharmacological agent to minimize endogenous PiT-mediated phosphate transport activity, such that the only remaining sodium-dependent phosphate transport activity is that which was bestowed by introduction of the NaP2b gene. Cells were incubated with radioactive inorganic phosphate in the presence or absence of varying concentrations of test compound. After a short time, cells were washed, harvested, and the amount of hot phosphate taken up in the cells determined by liquid scintillation counting.
# HEK293 cells were obtained from the American Type Culture collection and propagated per their instructions. […]
# Cells were seeded into 96-well plates at 25,000 cells/well and cultured overnight. […] Cells were lysed by addition of 20 μL 0.1% Tween 80 followed by 100 μL scintillation fluid, and counted using a TopCount (Perkin Elmer). The pIC50 (the negative log of the IC50) values of the test compounds were calculated using GraphPad Prism.
# [2] = tested on: uremic rat model of CKD featuring vascular calcification; assay: Rat model of uremia-associated vascular calcification (5/6 nephrectomy, calcitriol, 0.9% P diet); assay type: in vivo
# Description: Chronic kidney disease (CKD) has multiple pathogenic mechanisms, and advanced CKD is often characterized by disordered mineral metabolism (e.g., hyperphosphatemia, hypercalcemia) and vascular calcification. Studies were thus performed to test the effectiveness of the dihydrochloride salt of Cpd 002 (from Table E4, as the dihydrochloride salt) in a uremic rat model of CKD featuring vascular calcification. This model is characterized by renal insufficiency and regular active Vitamin D3 administration to promote hyperphosphatemia and vascular calcification (see Lopez et al., J. Am. Soc. Nephrol. 17:795-804, 2006). The study utilized Spraque-Dawley rats treated as follows: 5/6th nephrectomy by excision; regular calcitriol administration (active vitamin D3) 80 ng/kg i.p. 3/week; and fed a purified 0.9% P diet (inorganic phosphorus).
# Rats were stratified into two experimental groups by serum creatinine levels of 0.8 to 1.5 mg/dl and body weight, fed drug-in-chow with powdered vehicle diet or the same diet with Cpd 002 (0.065 mg/g chow) mixed-in, and monitored for weekly body weight and selected serum parameters, daily clinical observations, and endpoint calcification. The study design is illustrated in FIG. 2.
# Selected experimental groups were fed vehicle (n=12) or Cpd 002 (n=12) at enrollment (day 0).
# [3] = tested on: dietary salt-induced, partial renal ablation model of CKD; assay: Dietary salt-induced, partial renal ablation model of CKD in nephrectomized rats; assay type: in vivo, rat
# Experimental: The effects of Cpd 002 (from Table E4, as the dihydrochloride salt) were tested in a dietary salt-induced, partial renal ablation model of CKD. The study design is illustrated in FIG. 11A (12 rats per group).
# [4] = tested on: phosphorus and calcium levels in the urine of rats; assay: Urinary excretion of phosphate and calcium in rats (16 h overnight urine); assay type: in vivo, rat
# [5] = endpoint day 27, 0.065 mg/g chow, vs vehicle
# [6] = endpoint, 0.065 mg/g chow, vs vehicle
# [7] = organ weight/body weight, 0.065 mg/g chow, vs vehicle
# [8] = relative to vehicle-only control, 0.1-3.0 mg/kg, 16 h urine
compound,measurement,setting,value
CN1Cc2c(Cl)cc(Cl)cc2[C@H](c2cccc(S(=O)(=O)NCCOCCOCCNC(=O)NCCCCNC(=O)NCCOCCOCCNS(=O)(=O)c3cccc([C@@H]4CN(C)Cc5c(Cl)cc(Cl)cc54)c3)c2)C1 [Cpd 002],pIC50 Human Nap2B,[1],<4.5
same,endpoint plasma aldosterone,"[2]; 0.065 mg/g chow, vs vehicle",aldosterone increase
same,plasma creatinine,"[2]; endpoint day 27, 0.065 mg/g chow, dihydrochloride salt, vs vehicle",reduced plasma creatinine
same,plasma FGF-23,[2]; [5],reduced plasma FGF-23
same,plasma phosphorus,[2]; [5],reduced plasma phosphorus; also recorded: anti-hyperphosphatemic effects
same,calcium and phosphorus in the stomach (soft tissue calcification),[2]; [6],reduced calcium and phosphorus in the stomach
same,vascular calcification as aortic mineral content,[2]; [6],reduced vascular calcification; also recorded: reduce associated vascular calcification
same,endpoint heart weight (heart hypertrophy),[2]; [7],lessened; also recorded: reduce both heart hypertrophy and renal hypertrophy
same,endpoint kidney remnant weight (renal hypertrophy),[2]; [7],lessened; also recorded: reduce both heart hypertrophy and renal hypertrophy
same,moribundity,[2]; treatment group vs vehicle,decreased moribundity
same,mortality outcome,[2]; treatment group vs vehicle,trend toward improved mortality outcome
same,phosphorus urinary excretion,[3]; FIG. 11B,significantly reduced
same,blood pressure,[3]; dihydrochloride salt,improved
same,albuminuria,"[3]; rat, in vivo",improved
same,fluid overload,"[3]; rat, in vivo",improved
same,heart hypertrophy,"[3]; rat, in vivo",improved
same,kidney hypertrophy,"[3]; rat, in vivo",improved
same,urine phosphorus mass,"[4]; increasing dosages, relative to 48 mg/kg Renvela",significantly reduced
same,urine calcium mass,[4]; [8],reduced
same,urine phosphorus mass,[4]; [8],reduced
